Patent publication US6538033B2, “Nitric oxide donor compounds” (Huntington Medical Research Institutes, priority 2000, dated 2003)

How the values were obtained:
[1] = Nitric oxide generation in vitro, spontaneous release in the absence of washed platelets (chemiluminescence); conditions: without platelets, B-NOD 10, 100 or 1000 μM
Experimental: (§1) Venous blood was collected from healthy volunteers who had not previously been taking any drugs for at least two weeks; EDTA was used as an anticoagulant. Washed platelets were prepared as described in Radomski, M. and Moncada, S. (1983) An improved method for washing of human platelets with prostacyclin. Thromb Res 83,383-389, the disclosure of which is incorporated herein by reference, with some modifications. In brief, blood was centrifuged for 10 minutes at 200 g, and the resultant platelet rich plasma was removed. It was recentrifuged at 500 g for 10 minutes. The supernatant was discarded and the pellet was resuspended in Tyrode's solution. Platelet concentration was adjusted to 2×10^8 platelets/ml using a Coulter Counter (Model ZBI, Beckman-Coulter, Fullerton, Calif.). […]
(§2) The supernatant was analyzed for nitric oxide generation by chemiluminescence. […] Chemiluminescence was measured using a reducing system consisting of a ferrocene derivative dissolved in acetonitrile containing 1% perchloric acid, as described in Termin, A., Hoffmann, M. and Bing, R. J. (1992) A simplified method for the determination of nitric oxide in biological solutions. […] Under this condition, NO2 in the injected samples was reduced to NO and detected by chemiluminescence with the NO-analyzer (270 B, Sievers Res. Inc., Boulder, Colo.). […]

washed platelets = assay: Nitric oxide generation in vitro in the presence of washed platelets (chemiluminescence); assay type: cell-based, human; conditions: B-NOD 10, 100 or 1000 μM
Experimental: as §1, §2

[2] = test system: cGMP production in platelets; assay: Platelet cGMP in vitro (acetylation enzyme immunoassay); assay type: cell-based; conditions: human washed platelets; B-NOD 10, 100 or 1000 μM, 10 minutes
Experimental: Washed platelets were prepared from human blood as described above. 400 μl aliquots were incubated in the presence of B-NOD (10, 100 or 1000 μM) or methanol for 10 minutes. Incubations were terminated by centrifugation at 1000 g and the supernatant was removed. Ice-cold phosphate buffer was added to the pellets, and the pellets were sonicated for 20 seconds. cGMP was measured using an acetylation enzyme immunoassay system (Biotrak, Piscataway, N.J.).

platelet aggregation = assay: Platelet aggregation in vitro, thrombin as agonist (nephelometric aggregometer); assay type: cell-based, New Zealand rabbits; conditions: rabbit washed platelets; B-NOD 10, 100 or 1000 μM, 10 min preincubation; thrombin 0.04 to 0.14 U/ml
Experimental: Healthy male New Zealand rabbits were anesthetized with pentobarbital (10 mg/kg iv), ketamine (40 mg/kg im), xylazine (10 mg/kg im) and atropine (0.5 mg im). They were […] and mechanically ventilated with 95% oxygen (rate 40 strokes/min, tidal volume 25 ml). The heart was exposed with a median sternotomy, blood (40 ml) was collected from the right ventricle and washed platelets were prepared as described above. Platelet aggregation was monitored by a standard nephelometric technique in which 0.5 ml of platelet suspension (2×10^8 platelets/ml) were incubated at 37° C. and stirred at 1000 rpm in an aggregometer (Model PAP-3, Bio/Data corporation, Horsham, Pa.). The antiaggregant effects of B-NOD (10, 100 or 1000 μM) were tested by incubating platelets with B-NOD at 37.8° C. before the addition of thrombin. Incubation was carried out for 10 min. Thrombin was used as an agonist at relatively low concentrations (0.04 to 0.14 U/ml) to obtain submaximal aggregation in order to evaluate the drug's inhibitory effect.

[3] = Nitric oxide generation in vivo, plasma NOx after oral administration; parameters: species or system New Zealand White male rabbits; conditions: 80 mg/kg orally, rabbits
Experimental: (§3) New Zealand White male rabbits were given 80 mg/kg of B-NOD. B-NOD was dissolved in 2 ml DMSO, suspended in 8 ml carboxymethylcellulose (0.5%) and administered orally. Blood (1 ml) was drawn from the ear vein using heparinized syringes before and 10 minutes, 30 minutes, 1 hour, 3 hours, 5 hours, 7 hours, and 24 hours following B-NOD administration. Blood samples were centrifuged at 1200 g for 10 minutes and deproteinized by an ultrafiltration device (MPS Micropartition, Millipore Corporation, Bedford, Mass.) and centrifuged again at 2500 g for 90 minutes. Plasma NOx was measured by chemiluminescence as described above.
(§4) Heart rate and systolic and diastolic blood pressures were measured through a 22 gauge by one inch catheter inserted into the ear artery connected to a DIGI-MED™Heart Performance Analyzer 100 (Louisville, Ky.). Determination of blood pressure and heart rate were carried out prior to and 1, 3, 5 hours after B-NOD administration. FIG. 4 illustrates concentrations of NOx in plasma of animals up to 24 hours following administration of B-NOD.

[4] = Blood pressure and heart rate after oral administration; assay type: in vivo, New Zealand White male rabbits; conditions: 80 mg/kg orally, rabbits; one, three and five hours following administration
Experimental: as §3, §4
Several NO donors are known to cause a fall in blood pressure, particularly when administered intravenously.

## O=C(Oc1cccc(CO[N+](=O)[O-])c1)c1ccccc1O [B-NOD, 3-(nitrooxymethyl)phenyl 2-hydroxybenzoate]
[1]
  NO production (NOx): increased NO production in a dose-dependent manner
[1]; 37° C., 10 minutes
  maximal NO release: 98 µmol/L
Washed platelets; in the presence of platelets (2×10^8 platelets/ml), 10 minutes
  maximal NO release: 156 µmol/L
Washed platelets; with platelets
  NO production (NOx): increased NO production in a dose-dependent manner
[2]
  cyclic GMP production in platelets: increased cyclic GMP production in a dose-dependent manner
Platelet aggregation
  inhibition of platelet aggregation as compared to the control: approximately 25%
[3]; 24 hours
  NOx concentration in plasma after 24 hours: returned to control values
[3]; seven hours following administration
  NOx concentration in plasma, course to seven hours: plateaued for seven hours
[3]; three hours following administration (increase from 59 before administration)
  NOx concentration in plasma: 115 µmol/L
[4]
  diastolic pressure: did not affect
  heart rate: failed to change
  systolic pressure: did not affect
